Bridges are numbered along the chain shown (N, C = ends). Roman numbers before positions name the chains, in order. Where no end group is shown, it is not given here.
Key:
[1] = tested on: CLEC9A; assay: Solid-phase binding to CLEC9A; parameters: species or system human; conditions: Fig. 2b
Protocol: (§1) Solid-phase binding assays were performed with streptavidin-, protein A/G-, or Nickel-coated microtiter plates (Pierce). His-tagged or Fc-fusion recombinant receptors (R&D Systems, Minneapolis, MN) were reconstituted in PBS. Sufficient receptors were added to wells to saturate the coating. His-tagged receptors were added to each well at a 5-fold excess over the stated capacity of the Ni coating to minimize non-specific binding of the peptide. Wells were washed three times with binding buffer (25 mM Tris HCl, pH 7.4, 150 mM NaCl, 0.05% Tween-20) to remove unbound receptor and 50 μL of 2 μM biotinylated peptide in binding buffer were added and allowed to incubate for 1 h. The wells were washed four times with binding buffer and then incubated with 50 μL of 1 μg/mL streptavidin conjugated with peroxidase (Sigma-Aldrich) for 1 h. […] After several minutes to allow color development, the reaction was stopped with 50 μL 1 M H3PO4 and absorbance was measured at 450 nm. Bound streptavidin was quantitated by the specific activity of peroxidase (absorbance/ng protein conjugate/min) under the conditions of the assay.
(§2) Solid-phase binding assays were performed with recombinant human receptors. […] After extensive washing, the bound receptor was measured by peroxidase conjugated to a receptor-specific antibody. […]

[2] = tested on: brain glioma; conditions: in combination with brief radiation; ref [48]; cited from earlier work
Excerpt: We asked whether the collective evidence of the role of ligands of CLEC10A, such as promoting DC maturation, T cell activation, and initiation of an immune response would coalesce into an effective anti-cancer therapy. To achieve this goal, the ligand should serve as a ‘trigger’ to initiate a cascade of events that will lead to activation of the immune system. Given that natural ligands of CLEC10A that contain GalNAc bind with low affinity and are antigenic, we considered whether a multivalent peptide mimetic of GalNAc would serve this purpose. We previously described ef ...

[3] = target: T1, human CLEC10A (Homo sapiens, UniProt Q8IUN9); assay: Solid-phase binding to recombinant human CLEC10A; conditions: Fig. 2a, representative of 3 independent experiments
T1 construct: purchased R&D Systems
T1 sequence (Q8IUN9 61-316 limits assumed): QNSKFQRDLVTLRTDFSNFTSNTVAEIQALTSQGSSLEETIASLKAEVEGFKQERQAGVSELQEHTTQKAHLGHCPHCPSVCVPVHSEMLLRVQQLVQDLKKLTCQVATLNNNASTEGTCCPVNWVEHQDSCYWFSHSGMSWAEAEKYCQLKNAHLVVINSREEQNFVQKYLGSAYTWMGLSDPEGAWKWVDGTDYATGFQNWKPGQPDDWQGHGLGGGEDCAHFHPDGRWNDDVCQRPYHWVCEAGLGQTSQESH
Protocol: Solid-phase binding assays were performed with streptavidin-, protein A/G-, or Nickel-coated microtiter plates (Pierce). His-tagged or Fc-fusion recombinant receptors (R&D Systems, Minneapolis, MN) were reconstituted in PBS. Sufficient receptors were added to wells to saturate the coating. His-tagged receptors were added to each well at a 5-fold excess over the stated capacity of the Ni coating to minimize non-specific binding of the peptide. Wells were washed three times with binding buffer (25 mM Tris HCl, pH 7.4, 150 mM NaCl, 0.05% Tween-20) to remove unbound receptor and 50 μL of 2 μM biotinylated peptide in binding buffer were added and allowed to incubate for 1 h. The wells were washed four times with binding buffer and then incubated with 50 μL of 1 μg/mL streptavidin conjugated with peroxidase (Sigma-Aldrich) for 1 h. The wells were washed five times with binding buffer and 50 μL of peroxidase substrate (1-Step™ Ultra TMB, Pierce) were added. After several minutes to allow color development, the reaction was stopped with 50 μL 1 M H3PO4 and absorbance was measured at 450 nm. Bound streptavidin was quantitated by the specific activity of peroxidase (absorbance/ng protein conjugate/min) under the conditions of the assay.
Solid-phase binding assays were performed with recombinant human receptors. Three variations of the binding assay were used in this study, all of which allowed the arms of the tetravalent peptide to have full flexibility. (i) Biotinylated peptide was bound in microtiter wells coated with streptavidin and incubated with recombinant human receptors. After extensive washing, the bound receptor was measured by peroxidase conjugated to a receptor-specific antibody. (ii) The extracellular domains of receptors, which were fused with the Fc domain of immunoglobulin IgG, were bound in wells coated with protein A/G. Biotinylated peptide was incubated with the receptors and, after extensive washing, bound peptide was measured with streptavidin conjugated with peroxidase. Or (iii), recombinant receptors with a poly-His tag were bound to Nickel-coated wells and incubated with biotinylated peptide. svL4 and sv6D contain His residues (see Table 1) and can bind to the Ni coating, which was minimized by adding sufficient poly-His-tagged receptor to saturate the Ni coating.

[4] = tested on: peritoneal cells of Balb/c mice; assay: Peritoneal immune cell populations by flow cytometry, healthy Balb/c mice; format: in vivo, mouse (Balb/c)
Protocol: Healthy C57BL/6 male mice, 10 weeks old, were injected subcutaneously with peptides on alternate days. Peritoneal cells were isolated from mice 24 h after dosing by injecting ice cold PBS (containing 3% FBS) into the peritoneal cavity, gently massaging the abdomen, and then collecting the fluid, which was transferred into K2EDTA-treated tubes for evaluation of specific biomarkers. Cells from three mice in each group were pooled, counted and divided among FACS tubes (1 × 10^6 cells per tube). Cells were washed once in PBS containing 3% FBS, then stained with 0.25 to 1 μg of fluorescently conjugated antibody per 10^6 cells in 100 μL of buffer as recommended by the manufacturer (Table 2).
Cells were incubated with the antibodies for 30 min at 4 °C in the dark. Following staining, the cells were washed two times with PBS/3% FBS and immediately analyzed with a MACSQuant flow cytometer (Miltenyi Biotech, Inc., San Diego, CA). Compensation was performed using single stain tubes for each color present in the analysis as well as an unstained control sample. Collection of flow cytometric data and analysis with FlowJo software, version 10.0.6 (FlowJo, LLC, Ashland, OR) were performed by Biomodels LLC (Watertown, MA).
To examine whether increases occurred in mature immune cells, peritoneal cells from Balb/c and C57BL/6 mice were analyzed by flow cytometry after cells were stained with the markers listed in Table 2. […] To explore this observation more extensively, svL4 or sv6D was injected into C57BL/6 mice on day 0, 2 or 4. Peritoneal cells were examined by flow cytometry 24 h after each injection. Shown in Fig. 5 are results expressed as cell counts for F4/80 CD11b CD86 (mature, active macrophages); CD11c (DCs); CD11c CD 86 (activated DCs); CD4 CD69 (activated T cells); CD8 CD69 (activated cytotoxic T cells); NK1.1 CD3^+ CD69 (activated NKT cells); NK1.1 CD3^− CD69 (activated NK cells); CD19 (B cells); and CD19 CD73 CD80 CD273 (memory B cells). The numbers of these mature, activated cells continued to increase with each injection.

[5] = tested on: Siglec-1; assay: Solid-phase binding to Siglec-1; parameters: species or system human; conditions: Fig. 2b
Protocol: as §1, §2

I: VQATQSNQHTPRGGGSKK-NH2 / II: VQATQSNQHTPRGGGSK / III: VQATQSNQHTPRGGGS / IV: VQATQSNQHTPRGGGS (amide I:17-IV:C, I:18-II:C, II:17-III:C) [svL4]
binding to CLEC9A [1]: did not bind significantly
efficacy in murine brain glioma model [2]: efficacy
binding to CLEC10A [3]: bound to CLEC10A
increases in macrophages, DCs, T cells and NK cells ([4]; 1 nmole/g s.c., 24 h after a single injection): Several-fold increases
CD90.2^+ fraction of small cells ([4]; after treatment with svL4): about 15%
increase in mature immune cells ([4]; within 24 h after a single injection (data not shown)): approximately 2 fold
small cells (low FSc, low SSc) ([4]; within 24 h after injection, healthy Balb/c, Fig. S1b): decreased to a minimal level
binding to Siglec-1 [5]: did not bind significantly

Reference: article PMC5905120, “An innovative immunotherapeutic strategy for ovarian cancer: CLEC10A and glycomimetic peptides” (Journal for Immunotherapy of Cancer, 2018)
